Measured values reported in patent US6495563B1, “Method and composition for prevention of scar formation in glaucoma filtration bleb and drainage fistula” (Synphora AB, priority 1999, dated 2002).
Marks after values point to notes of the source that are not given here.

Legend:
Human fibroblasts = assay: Antiproliferative effect on cultured human fibroblasts (crystal violet absorbance as measure of cell number); format: cell-based; conditions: for Effect on cell number of the cultures (decrease in crystal violet absorbance): 10^−6 to 10^−3 Moles/l, 5-7 days; for EC50 value for reducing cell number / EC50: 5-7 days of culture, crystal violet absorbance at 595 nm; for EC50: read-out: EC50 value for reducing cell number
Procedure: The following prostaglandins, purchased from Cayman Chemicals, Ann Arbor, Mich., USA, and Biomol Feinchemikalien GmbH, Hamburg, Germany were used in the experiments: prostaglandin A1 (PGA1), prostaglandin A2 (PGA2), prostaglandin J2 (PGJ2) and 15-deoxy-Δ^12,14-prostaglandin J2 (15-Δ^12,14-PGJ2). The chemical structures of the test compounds are depicted in FIG. 1. All test compounds were stored at −20° C., and fresh solutions containing the appropriate concentrations of the test compounds were made every second day. The test compounds were initially dissolved in ethanol and then diluted in the culture medium.
Human fibroblasts were used at passage 22-24. The culture medium consisted of DMEM with 10% fetal calf serum and 50 μg/ml gentamycin. Around 10,000 cells were seeded into each well of 48 well microtiter plates. The total volume of culture medium was about 250 μl/well. The cells were incubated at 37° C. with 5% CO2 humidified air. The culture medium was changed every second day, and at the same time new, freshly prepared prostaglandin was added to the medium. The test compounds were investigated at several concentrations in the range of 10^−6 to 10^−3 Moles/l. […] The concentrations in the figures depicting the results are expressed as the negative logarithm The culture medium alone served as control. After 5-7 days of culture the experiment was terminated by fixation of the cells in 1% glutaraldehyde. The cells were then stained with 0.1% crystal violet, and the stain was eluted with 2.5% sodium lauryl sulphate. The absorbance of the colored solutions was determined spectrophotometrically. Each experiment was performed at least in duplicate.

[1] = system: New Zealand White adult rabbits; assay: Postsurgical intraocular inflammation after extracapsular lens extraction in rabbits; format: in vivo, rabbit; conditions: 10 μg/dose twice daily; for Number of animals, operated eye Normal / Number of animals, operated eye Inflamed: 5 animals
Source text: Ten New Zealand White adult rabbits underwent extracapsular lens extraction in one eye to investigate the effect of PGA2-E on postsurgical inflammation. Lens extraction was used as a model since this procedure is always followed by some inflammatory changes. The contralateral eye was used as an untreated control eye in each animal. The operated eyes were given routine postsurgical treatment with corticosteroids and mydriatics for about one month. From the day after the surgery and for a total of 4 months 5 of the animals were treated with PGA2-IE eye drops twice daily (10 μg/dose) in the operated eye while the contralateral control (non-operated) eye received no treatment. The other 5 animals were treated with the vehicle only twice daily for the same period of time. […] The signs of inflammation comprised miosis, iridial hyperemia, flare and fibrin accumulation in the anterior chamber, and additional anti-inflammatory medication had to be given to these animals.

[2] = system: New Zealand White adult rabbits; assay: Intraocular pressure after modified trabeculectomy surgery in rabbits with topical eye drops; format: in vivo, rabbit
Procedure: Ten New Zealand White adult rabbits underwent modified unilateral trabeculectomy surgery and were treated with corticosteroids and mydriatics postoperatively for about one month according to a clinical protocol. Starting the same day as the surgery was performed, the operated eye in five animals was in addition treated twice daily with PGA2-IE eye drops (10 μg/dose) for 4 months, while in the other five animals the operated eye was treated with vehicle only for the same period of time. The intraocular pressure was measured throughout the treatment period at least every second week. […] From FIG. 4 it is apparent that the difference in intraocular pressure between the vehicle-treated operated and control eyes steadily diminished with time which was quite opposite to the difference in traocular pressure between the PGA2-IE-treated operated and control eyes in FIG. 5. Thus it appears that even during this short treatment period (4 months) a difference in the level of intraocular pressure reduction between the PGA2-IE treated and vehicle-treated operated eyes is manifested, and at the end of the treatment period the difference in intraocular pressure reduction was statistically significant (p<0.05) (Table 1).

SMILES: CCCCC/C=C/C=C1/C(=O)C=C[C@@H]1C/C=C\CCCC(=O)O [15-deoxy-Δ^12,14-PGJ2, 15-deoxy-Δ^12,14-prostaglandin J2]
- Effect on cell number of the cultures (decrease in crystal violet absorbance) (Human fibroblasts): effectively reduced the cell number

SMILES: CCCCC[C@H](O)/C=C/[C@H]1C=CC(=O)[C@@H]1CCCCCCC(=O)O [PGA1, prostaglandin A1]
- Effect on cell number of the cultures (decrease in crystal violet absorbance) (Human fibroblasts): effectively reduced the cell number

SMILES: CCCCC[C@H](O)/C=C/[C@H]1C=CC(=O)[C@@H]1C/C=C\CCCC(=O)OC(C)C [PGA2-IE, PGA2-isopropyl ester]
- Number of animals, operated eye Normal ([1]; 2 months after surgery): 3
- Number of animals, operated eye Inflamed ([1]; 2 months after surgery, one only slightly inflamed): 2*
- Anti-inflammatory effect in the eye ([1]; 4 month treatment): remarkable anti-inflammatory effect
- Number of animals, operated eye Inflamed ([1]; 4 months after surgery): 1
- Number of animals, operated eye Normal ([1]; 4 months after surgery): 4
- Maintenance of the intraocular pressure at a reduced level after surgery compared with vehicle ([2]; 4 months, 10 μg/dose twice daily): clear tendency towards better maintenance of the intraocular pressure at a reduced level
- Adverse effects in the eye (local inflammation or increased intraocular pressure) ([2]; 4 months, 10 μg/dose twice daily topical): no adversarial effects in the eye
- Intraocular pressure, operated eye ([2]; end of 4 month treatment, 10 μg/dose twice daily eye drops, n=5): 17.2 ± 2.9 mmHg
- Intraocular pressure, difference between control eye and operated eye ([2]; end of 4 month treatment, 10 μg/dose twice daily eye drops, n=5, p<0.05 vs vehicle group): 3.8 ± 1.0 mmHg

SMILES: CCCCC[C@H](O)/C=C/[C@H]1C(=O)C=C[C@@H]1C/C=C\CCCC(=O)O [PGJ2, prostaglandin J2]
- EC50 value for reducing cell number (Human fibroblasts): about −4.75 log units
- EC50 (Human fibroblasts): ~20 µM
- Effect on cell number of the cultures (decrease in crystal violet absorbance) (Human fibroblasts): effectively reduced the cell number

SMILES: CCCCC[C@H](O)/C=C/[C@H]1C=CC(=O)[C@@H]1C/C=C\CCCC(=O)O [PGA2, prostaglandin A2]
- EC50 value for reducing cell number (Human fibroblasts): around −5.5 log units
- EC50 (Human fibroblasts): ~3 µM
- Effect on cell number of the cultures (decrease in crystal violet absorbance) (Human fibroblasts): effectively reduced the cell number
